Measurements taken from PubChem BioAssay AID198 (DTP/NCI, 2004).
Several values for one entry are separate records, joined by “and”; a condition that tells them apart may be missing. Equal entries are not always repeated. Toxic doses and inconclusive results are not listed. *1 amine or outer side, *2 acyl side, *3 side chain or, on linkers, in order; H or OH if unused. Where a SMILES comes first, the peptide text is derived from it. Bridges are numbered along the chain shown (N, C = ends). Roman numbers before positions name the chains, in order. [ ]: non-standard residue; d: D form. Actinocin(9to1) = Cc1c2oc3c(C)ccc(C(=O)[*:1])c3nc-2c(C(=O)[*:2])c(N)c1=O; aThr = C[C@H](O)[C@H](N)C(=O)O; NMeV = CN[C@H](C(=O)O)C(C)C; Sar = CNCC(=O)O

Test system: B16 melanoma ip, C57BL/6 mice, median survival T/C
Experiment: NCI In Vivo Anticancer Drug Screen. Data for tumor model B16 Melanoma (intraperitoneal) in C57BL/6 mice
Conditions: endpoint: median survival time, higher = longer survival
Procedure: The antitumor activity of compounds was measured in mice bearing transplantable tumors. Survival or tumor size were measured and the results are expressed as the measurement made in the treated group (T) divided by the measurement made in the vehicle treated control group (C). The tumor model used in this assay is B16 Melanoma (intraperitoneal) in C57BL/6 mice

[1] = dose: 15.0 mg/kg/injection, schedule: Q01DX009 (ip), vehicle: saline
[2] = dose: 60.0 mg/kg/injection, schedule: Q01DX009 (ip), vehicle: saline
[3] = dose: 50.0 mg/kg/injection, schedule: Q01DX009 (ip), vehicle: saline
[4] = dose: 100.0 mg/kg/injection, schedule: Q01DX009 (ip), vehicle: saline
[5] = dose: 200.0 mg/kg/injection, schedule: Q01DX009 (ip), vehicle: saline
[6] = dose: 400.0 mg/kg/injection, schedule: Q01DX009 (ip), vehicle: saline
[7] = dose: 62.5 mg/kg/injection, schedule: Q01DX009 (ip), vehicle: saline
[8] = dose: 125.0 mg/kg/injection, schedule: Q01DX009 (ip), vehicle: saline
[9] = dose: 250.0 mg/kg/injection, schedule: Q01DX009 (ip), vehicle: saline
[10] = dose: 500.0 mg/kg/injection, schedule: Q01DX009 (ip), vehicle: saline
[11] = dose: 12.5 mg/kg/injection, schedule: Q01DX009 (ip), vehicle: saline
[12] = dose: 25.0 mg/kg/injection, schedule: Q01DX009 (ip), vehicle: saline
[13] = dose: 0.13 mg/kg/injection, schedule: Q01DX009 (ip), vehicle: saline
[14] = dose: 3.13 mg/kg/injection, schedule: Q01DX009 (ip), vehicle: saline
[15] = dose: 6.25 mg/kg/injection, schedule: Q01DX009 (ip), vehicle: saline
[16] = dose: 0.1 mg/kg/injection, schedule: Q01DX009 (ip), vehicle: saline
[17] = dose: 0.2 mg/kg/injection, schedule: Q01DX009 (ip), vehicle: saline
[18] = dose: 25.0 mg/kg/injection, schedule: Q01DX009 (ip), vehicle: saline with Tween-80
[19] = dose: 50.0 mg/kg/injection, schedule: Q01DX009 (ip), vehicle: saline with Tween-80
[20] = dose: 7.5 mg/kg/injection, schedule: Q01DX009 (ip), vehicle: saline

## CC(CN1CC(=O)NC(=O)C1)N1CC(=O)NC(=O)C1 (centres undefined)
[1]
  T/C: 109 % of control
[2]
  T/C: 90 % of control

## [N-]=[N+]=CC(=O)NCC(=O)NN
[3]
  T/C: 107 % of control
[4]
  T/C: 110 % of control
[5]
  T/C: 121 % of control
[6]
  T/C: 117 % of control

## O=C(N[C@H](CO)[C@H](O)c1ccc([N+](=O)[O-])cc1)C(Cl)Cl
[7]
  T/C: 106 % of control and 114 % of control
[8]
  T/C: 106 % of control and 107 % of control
[9]
  T/C: 106 % of control and 117 % of control
[10]
  T/C: 106 % of control and 107 % of control

## C[C@]12C=CC(=O)C=C1CC[C@@H]1[C@@H]2C(=O)C[C@@]2(C)[C@H]1CC[C@]2(O)C(=O)CO
[11]
  T/C: 100 % of control
[12]
  T/C: 100 % of control
[4]
  T/C: 88 % of control

## OCC1OC(n2cnc3c(Cl)ncnc32)C(O)C1O (centres undefined)
dose: 31.3 mg/kg/injection, schedule: Q01DX009 (ip), vehicle: saline
  T/C: 106 % of control and 107 % of control
[7]
  T/C: 93 % of control and 100 % of control
[8]
  T/C: 93 % of control and 100 % of control
[9]
  T/C: 86 % of control and 100 % of control

## O=c1[nH]c(=O)c2n[nH]nc2[nH]1
[7]
  T/C: 96 % of control
[8]
  T/C: 100 % of control
[9]
  T/C: 92 % of control
[10]
  T/C: 92 % of control

## Nc1ccc(Cl)cc1N
dose: 12.5 mg/kg/injection, schedule: Q01DX009 (ip), vehicle: other
  T/C: 106 % of control
dose: 25.0 mg/kg/injection, schedule: Q01DX009 (ip), vehicle: other
  T/C: 100 % of control
dose: 50.0 mg/kg/injection, schedule: Q01DX009 (ip), vehicle: other
  T/C: 100 % of control
dose: 100.0 mg/kg/injection, schedule: Q01DX009 (ip), vehicle: other
  T/C: 90 % of control

## CC(Cc1ccc(O)c(O)c1)C(C)Cc1ccc(O)c(O)c1 (centres undefined)
[3]
  T/C: 103 % of control
[4]
  T/C: 106 % of control
[5]
  T/C: 113 % of control
[6]
  T/C: 113 % of control

## COc1ccc2c3c(c4cc(OC)c(OC)cc4c2c1)C[C@H]1CCCCN1C3
[13]
  T/C: 100 % of control
dose: 0.25 mg/kg/injection, schedule: Q01DX009 (ip), vehicle: saline
  T/C: 100 % of control and 119 % of control
dose: 0.5 mg/kg/injection, schedule: Q01DX009 (ip), vehicle: saline
  T/C: 113 % of control
dose: 1.0 mg/kg/injection, schedule: Q01DX009 (ip), vehicle: saline
  T/C: 90 % of control

## CN1Cc2c(ccc3c2OCO3)[C@@H]2[C@H](O)Cc3cc4c(cc3[C@@H]21)OCO4
dose: 62.5 mg/kg/injection, schedule: Q01DX009 (ip), vehicle: saline with Tween-80
  T/C: 107 % of control
dose: 125.0 mg/kg/injection, schedule: Q01DX009 (ip), vehicle: saline with Tween-80
  T/C: 110 % of control
dose: 250.0 mg/kg/injection, schedule: Q01DX009 (ip), vehicle: saline with Tween-80
  T/C: 117 % of control

## Cc1nc(N)sc1CCCl
dose: 10.0 mg/kg/injection, schedule: Q01DX009 (ip), vehicle: saline sonified
  T/C: 100 % of control
dose: 20.0 mg/kg/injection, schedule: Q01DX009 (ip), vehicle: saline sonified
  T/C: 107 % of control
dose: 40.0 mg/kg/injection, schedule: Q01DX009 (ip), vehicle: saline sonified
  T/C: 103 % of control
dose: 80.0 mg/kg/injection, schedule: Q01DX009 (ip), vehicle: saline sonified
  T/C: 107 % of control

## N=[N+]=CC(=O)OCC(N)C(=O)O (centres undefined)
[14]
  T/C: 96 % of control
[15]
  T/C: 100 % of control
[11]
  T/C: 86 % of control
[12]
  T/C: 90 % of control

## CC1CCC(NC(=O)N(CCCl)N=O)CC1 (centres undefined)
dose: 1.9 mg/kg/injection, schedule: Q01DX001 (ip), vehicle: saline
  T/C: 100 % of control
dose: 3.75 mg/kg/injection, schedule: Q01DX001 (ip), vehicle: saline
  T/C: 112 % of control
dose: 7.5 mg/kg/injection, schedule: Q01DX001 (ip), vehicle: saline
  T/C: 103 % of control
dose: 15.0 mg/kg/injection, schedule: Q01DX001 (ip), vehicle: saline
  T/C: 115 % of control

## Nc1nc2ncc(CNc3ccc(C(=O)NC(CCC(=O)O)C(=O)O)cc3)nc2c(=O)[nH]1 (centres undefined)
[11]
  T/C: 100 % of control and 103 % of control
[12]
  T/C: 97 % of control and 106 % of control

## O=C(O)c1[nH]c(=O)[nH]c(=O)c1F
dose: 1.25 mg/kg/injection, schedule: Q01DX009 (ip), vehicle: saline
  T/C: 100 % of control
dose: 2.5 mg/kg/injection, schedule: Q01DX009 (ip), vehicle: saline
  T/C: 106 % of control and 110 % of control
dose: 5.0 mg/kg/injection, schedule: Q01DX009 (ip), vehicle: saline
  T/C: 100 % of control and 103 % of control
dose: 10.0 mg/kg/injection, schedule: Q01DX009 (ip), vehicle: saline
  T/C: 87 % of control and 89 % of control

## Nc1nc2n[nH]nc2c(=O)[nH]1
[12]
  T/C: 100 % of control
[3]
  T/C: 103 % of control
[4]
  T/C: 86 % of control
[5]
  T/C: 90 % of control

## Cc1c2oc3c(C)ccc(C(=O)N[C@@H]4C(=O)N[C@H](C(C)C)C(=O)N5CCC[C@H]5C(=O)N(C)CC(=O)N(C)[C@@H](C(C)C)C(=O)O[C@H]4C)c3nc-2c(C(=O)N[C@@H]2C(=O)N[C@H](C(C)C)C(=O)N3CCC[C@H]3C(=O)N(C)CC(=O)N(C)[C@@H](C(C)C)C(=O)O[C@H]2C)c(N)c1=O (I: [aThr][dV]P[Sar][NMeV] / II: [aThr][dV]P[Sar][NMeV]; ester I:1-I:C, II:1-II:C; linker I:N-II:N via Actinocin(9to1))
dose: 0.03 mg/kg/injection, schedule: Q01DX009 (ip), vehicle: saline
  T/C: 150 % of control and 165 % of control
dose: 0.05 mg/kg/injection, schedule: Q01DX009 (ip), vehicle: saline
  T/C: 156 % of control and 164 % of control and 193 % of control
[16]
  T/C: 203 % of control
[17]
  T/C: 117 % of control

## Cn1cc(NC(=O)c2cc(NC(=O)CN=C(N)N)cn2C)cc1C(=O)NCCC(=N)N
[14]
  T/C: 100 % of control and 107 % of control
[15]
  T/C: 100 % of control and 107 % of control
[11]
  T/C: 100 % of control
[12]
  T/C: 86 % of control

## CC1=C2C(=C[C@@](C)(CO)[C@@H]2O)C(=O)[C@](C)(O)C12CC2
[16]
  T/C: 113 % of control
[17]
  T/C: 113 % of control

## CN(C)CCCN1c2ccc(O)cc2Sc2ccc(Cl)cc21
[15]
  T/C: 109 % of control
[11]
  T/C: 115 % of control
[12]
  T/C: 103 % of control
[3]
  T/C: 103 % of control and 106 % of control
[4]
  T/C: 100 % of control

## O=C1CN=C(c2ccc[nH]2)c2cc(Cl)ccc2N1
[11]
  T/C: 107 % of control
[18]
  T/C: 107 % of control
[12]
  T/C: 105 % of control
dose: 50.0 mg/kg/injection, schedule: Q01DX001 (ip), vehicle: saline
  T/C: 100 % of control
[19]
  T/C: 100 % of control
[3]
  T/C: 97 % of control
dose: 100.0 mg/kg/injection, schedule: Q01DX001 (ip), vehicle: saline
  T/C: 100 % of control
dose: 100.0 mg/kg/injection, schedule: Q01DX009 (ip), vehicle: saline with Tween-80
  T/C: 103 % of control
[4]
  T/C: 97 % of control
dose: 200.0 mg/kg/injection, schedule: Q01DX001 (ip), vehicle: saline
  T/C: 97 % of control
dose: 200.0 mg/kg/injection, schedule: Q01DX009 (ip), vehicle: saline with Tween-80
  T/C: 107 % of control
[5]
  T/C: 112 % of control
dose: 400.0 mg/kg/injection, schedule: Q01DX001 (ip), vehicle: saline
  T/C: 102 % of control

## CC(C)S(=O)(=O)/C(Cl)=C(/Cl)C(Cl)=C(Cl)Cl
[18]
  T/C: 94 % of control
[19]
  T/C: 97 % of control

## S=c1nc[nH]c2nc[nH]c12
[20]
  T/C: 93 % of control and 100 % of control
[1]
  T/C: 90 % of control and 93 % of control
dose: 30.0 mg/kg/injection, schedule: Q01DX009 (ip), vehicle: saline
  T/C: 93 % of control
[2]
  T/C: 93 % of control

## CC[C@]1(O)C[C@H]2CN(CCc3c([nH]c4ccccc34)[C@@](C(=O)OC)(c3cc4c(cc3OC)N(C=O)[C@H]3[C@@](O)(C(=O)OC)[C@H](OC(C)=O)[C@]5(CC)C=CCN6CC[C@]43[C@@H]65)C2)C1
dose: 0.06 mg/kg/injection, schedule: Q01DX009 (ip), vehicle: saline
  T/C: 182 % of control
[13]
  T/C: 189 % of control

## COc1cc([C@@H]2c3cc4c(cc3[C@H](O)[C@H]3COC(=O)[C@H]23)OCO4)cc(OC)c1OC
dose: 2.0 mg/kg/injection, schedule: Q01DX009 (ip), vehicle: saline
  T/C: 106 % of control
dose: 4.0 mg/kg/injection, schedule: Q01DX009 (ip), vehicle: saline
  T/C: 120 % of control
dose: 8.0 mg/kg/injection, schedule: Q01DX009 (ip), vehicle: saline
  T/C: 113 % of control
dose: 16.0 mg/kg/injection, schedule: Q01DX009 (ip), vehicle: saline
  T/C: 96 % of control

## O=C(O)CCCc1ccc(N(CCCl)CCCl)cc1
[14]
  T/C: 96 % of control and 103 % of control
[15]
  T/C: 100 % of control and 114 % of control
[11]
  T/C: 106 % of control and 112 % of control
[12]
  T/C: 86 % of control

## O=NN(CCCl)C(=O)NCCCl
[20]
  T/C: 164 % of control and 213 % of control
[1]
  T/C: 121 % of control
